Reference: US10681909B2, “Herbicidal triazoles” (FMC Corporation, priority 2014, dated 2020)

Assays:
wheat (winter wheat) = experiment: Test C preemergence; format: in vivo, Triticum aestivum; conditions: for Wheat plant response rating (0 to 100): Preemergence, visual rating after 13 to 15 d; for Plant response rating (scale of 0 to 100 where 0 is no effect and 100 is complete control): Wheat, preemergence, 250 g ai/ha
Source text: (§1) Seeds of plant species selected from blackgrass (Alopecurus myosuroides), ryegrass, Italian (Italian ryegrass, Lolium multiflorum), wheat (winter wheat, Triticum aestivum), galium (catchweed bedstraw, Galium aparine), corn (Zea mays), crabgrass, large (large crabgrass, Digitaria sanguinalis), foxtail, giant, (giant foxtail, Setaria faberii), johnsongrass (Sorghum halepense), lambsquarters (Chenopodium album), morningglory (Ipomoea coccinea), nutsedge, yellow (yellow nutsedge, Cyperus esculentus), pigweed (Amaranthus retroflexus), ragweed (common ragweed, Ambrosia elatior), soybean (Glycine max), barnyardgrass (Echinochloa crus-galli), oilseed rape (Brassica napus), waterhemp (common waterhemp, Amaranthus rudis), and velvetleaf (Abutilon theophrasti) were planted into a blend of loam soil and sand and treated preemergence with test chemicals formulated in a non-phytotoxic solvent mixture which included a surfactant. At the same time, plants selected from these crop and weed species and also chickweed (common chickweed, Stellaria media), oat, wild (wild oat, Avena fatua), and kochia (Kochia scoparia), were planted in pots containing Sunshine Redi-Earth® planting medium comprising spaghnum peat moss, vermiculite, starter nutrients and dolomitic limestone and treated with postemergence applications of test chemicals formulated in the same manner. Plants ranged in height from 2 to 18 cm (1- to 4-leaf stage) for postemergence treatments. […] A dash (-) response means no test result.

foxtail, giant = experiment: Test C preemergence; format: in vivo, Setaria faberii; conditions: for Plant response rating (scale of 0 to 100 where 0 is no effect and 100 is complete control): Foxtail, Giant, preemergence; for Foxtail, Giant plant response rating (0 to 100): Preemergence, visual rating after 13 to 15 d
Source text: as §1

soybean = experiment: Test C preemergence; format: in vivo, Glycine max; conditions: for Soybean plant response rating (0 to 100): Preemergence, visual rating after 13 to 15 d; for Plant response rating (scale of 0 to 100 where 0 is no effect and 100 is complete control): Soybean, preemergence, 250 g ai/ha
Source text: as §1

barnyardgrass = experiment: Test C preemergence; format: in vivo, Echinochloa crus-galli; conditions: for Plant response rating (scale of 0 to 100 where 0 is no effect and 100 is complete control): Barnyardgrass, preemergence; for Barnyardgrass plant response rating (0 to 100): Preemergence, visual rating after 13 to 15 d
Source text: as §1

chickweed = experiment: Test D preemergence; format: in vivo, Stellaria media; conditions: for Plant response rating: Chickweed: scale 0 to 100
Source text: (§2) Seeds of plant species selected from bluegrass (annual bluegrass, Poa annua), blackgrass (Alopecurus myosuroides), canarygrass (Phalaris minor), chickweed (common chickweed, Stellaria media), galium (catchweed bedstraw, Galium aparine), bromegrass, down (downy bromegrass, Bromus tectorum), Russian thistle (Salsola kali), field poppy (Papaver rhoeas), field violet (Viola arvensis), foxtail, green (green foxtail, Setaria viridis), deadnettle (henbit deadnettle, Lamium amplexicaule), ryegrass, Ital. (Italian ryegrass, Lolium multiflorum), kochia (Kochia scoparia), lambsquarters (Chenopodium album), oilseed rape (Brassica napus), pigweed (Amaranthus retroflexus), chamomile (scentless chamomile, Matricaria inodora), speedwell (bird's-eye speedwell, Veronica persica), barley, spring (spring barley, Hordeum vulgare), wheat, spring (spring wheat, Triticum aestivum), buckwheat, wild (wild buckwheat, Polygonum convolvulus), wild mustard (Sinapis arvensis), oat, wild (wild oat, Avena fatua), radish, wild (wild radish, Raphanus raphanistrum), […]), barley, winter (winter barley, Hordeum vulgare), and wheat, winter (winter wheat, Triticum aestivum) were planted into a silt loam soil and treated preemergence with test chemicals formulated in a non-phytotoxic solvent mixture which included a surfactant. At the same time, these species were planted in pots containing Sunshine Redi-Earth® planting medium comprising spaghnum peat moss, vermiculite, starter nutrients and dolomitic limestone and treated with postemergence applications of the test chemicals formulated in the same manner. Plants ranged in height from 2 to 18 cm (1- to 4-leaf stage). Treated plants and controls were maintained in a controlled growth environment for 14 to 21 d after which time all species were compared to controls and visually evaluated. […] A dash (-) response means no test result.

deadnettle = experiment: Test D preemergence; format: in vivo, Lamium amplexicaule; conditions: for Plant response rating: Deadnettle: scale 0 to 100
Source text: as §2

bluegrass = experiment: Test D postemergence; format: in vivo, Poa annua; conditions: scale 0 to 100
Source text: as §2

canarygrass = experiment: Test D postemergence; format: in vivo, Phalaris minor; conditions: scale 0 to 100
Source text: as §2

field poppy = experiment: Test D postemergence; format: in vivo, Papaver rhoeas; conditions: scale 0 to 100
Source text: as §2

field violet = experiment: Test D postemergence; format: in vivo, Viola arvensis; conditions: scale 0 to 100
Source text: as §2

oilseed rape = experiment: Test D postemergence; format: in vivo, Brassica napus; conditions: scale 0 to 100
Source text: as §2

chamomile = experiment: Test D postemergence; format: in vivo, Matricaria inodora; conditions: scale 0 to 100
Source text: as §2

buckwheat, wild = experiment: Test D postemergence; format: in vivo, Polygonum convolvulus; conditions: scale 0 to 100
Source text: as §2

wild mustard = experiment: Test D postemergence; format: in vivo, Sinapis arvensis; conditions: scale 0 to 100
Source text: as §2

radish, wild = experiment: Test D postemergence; format: in vivo, Raphanus raphanistrum; conditions: scale 0 to 100
Source text: as §2

[1] = 16 g ai/ha, 0 is no effect, 100 is complete control

## Fc1ccc(-c2nc(OCC(F)(F)F)n(Cc3ccnc(C(F)(F)F)c3)n2)cc1 [Compound 30]
Wheat (winter wheat); 31 g ai/ha
  Wheat plant response rating (0 to 100): 0
Wheat (winter wheat); 62 g ai/ha
  Wheat plant response rating (0 to 100): 0
Wheat (winter wheat)
  Plant response rating (scale of 0 to 100 where 0 is no effect and 100 is complete control): 35
foxtail, giant; 125 g ai/ha
  Plant response rating (scale of 0 to 100 where 0 is no effect and 100 is complete control): 100
foxtail, giant; 250 g ai/ha
  Plant response rating (scale of 0 to 100 where 0 is no effect and 100 is complete control): 100
foxtail, giant; 31 g ai/ha
  Foxtail, Giant plant response rating (0 to 100): 98
foxtail, giant; 62 g ai/ha
  Foxtail, Giant plant response rating (0 to 100): 100
soybean; 31 g ai/ha
  Soybean plant response rating (0 to 100): 10
soybean; 62 g ai/ha
  Soybean plant response rating (0 to 100): 5
soybean
  Plant response rating (scale of 0 to 100 where 0 is no effect and 100 is complete control): 40
barnyardgrass; 125 g ai/ha
  Plant response rating (scale of 0 to 100 where 0 is no effect and 100 is complete control): 85
barnyardgrass; 250 g ai/ha
  Plant response rating (scale of 0 to 100 where 0 is no effect and 100 is complete control): 98
barnyardgrass; 31 g ai/ha
  Barnyardgrass plant response rating (0 to 100): 40
barnyardgrass; 62 g ai/ha
  Barnyardgrass plant response rating (0 to 100): 85
chickweed; [1]
  Plant response rating (0 to 100), Chickweed: 70
chickweed; 31 g ai/ha
  Plant response rating: Chickweed: 80
chickweed; 62 g ai/ha
  Plant response rating: Chickweed: 100
chickweed; 125 g ai/ha
  Plant response rating: Chickweed: 100
deadnettle; [1]
  Plant response rating (0 to 100), Deadnettle: 85
deadnettle; 31 g ai/ha
  Plant response rating: Deadnettle: 95
deadnettle; 62 g ai/ha
  Plant response rating: Deadnettle: 100
deadnettle; 125 g ai/ha
  Plant response rating: Deadnettle: 100
bluegrass; 16 g ai/ha
  Plant response rating: Bluegrass: 65
bluegrass; 31 g ai/ha
  Plant response rating: Bluegrass: 70
bluegrass; 62 g ai/ha
  Plant response rating: Bluegrass: 75
bluegrass; 125 g ai/ha
  Plant response rating: Bluegrass: 80
canarygrass; 16 g ai/ha
  Plant response rating: Canarygrass: 55
canarygrass; 31 g ai/ha
  Plant response rating: Canarygrass: 65
canarygrass; 62 g ai/ha
  Plant response rating: Canarygrass: 75
canarygrass; 125 g ai/ha
  Plant response rating: Canarygrass: 80
Field poppy; 16 g ai/ha
  Plant response rating: Field Poppy: 70
Field poppy; 31 g ai/ha
  Plant response rating: Field Poppy: 90
Field poppy; 62 g ai/ha
  Plant response rating: Field Poppy: 98
Field poppy; 125 g ai/ha
  Plant response rating: Field Poppy: 100
Field violet; 16 g ai/ha
  Plant response rating: Field Violet: 75
Field violet; 31 g ai/ha
  Plant response rating: Field Violet: 98
Field violet; 62 g ai/ha
  Plant response rating: Field Violet: 95
Field violet; 125 g ai/ha
  Plant response rating: Field Violet: 100
Oilseed rape; 16 g ai/ha
  Plant response rating: Oilseed Rape: 90
Oilseed rape; 31 g ai/ha
  Plant response rating: Oilseed Rape: 75
Oilseed rape; 62 g ai/ha
  Plant response rating: Oilseed Rape: 100
Oilseed rape; 125 g ai/ha
  Plant response rating: Oilseed Rape: 100
chamomile; 16 g ai/ha
  Plant response rating: Chamomile: 20
chamomile; 31 g ai/ha
  Plant response rating: Chamomile: 30
chamomile; 62 g ai/ha
  Plant response rating: Chamomile: 40
chamomile; 125 g ai/ha
  Plant response rating: Chamomile: 70
buckwheat, wild; 16 g ai/ha
  Plant response rating: Buckwheat, Wild: 70
buckwheat, wild; 31 g ai/ha
  Plant response rating: Buckwheat, Wild: 70
buckwheat, wild; 62 g ai/ha
  Plant response rating: Buckwheat, Wild: 85
buckwheat, wild; 125 g ai/ha
  Plant response rating: Buckwheat, Wild: 85
Wild mustard; 16 g ai/ha
  Plant response rating: Mustard, Wild: 90
Wild mustard; 31 g ai/ha
  Plant response rating: Mustard, Wild: 100
Wild mustard; 62 g ai/ha
  Plant response rating: Mustard, Wild: 100
Wild mustard; 125 g ai/ha
  Plant response rating: Mustard, Wild: 100
radish, wild; 16 g ai/ha
  Plant response rating: Radish, Wild: 95
radish, wild; 31 g ai/ha
  Plant response rating: Radish, Wild: 95
radish, wild; 62 g ai/ha
  Plant response rating: Radish, Wild: 98
radish, wild; 125 g ai/ha
  Plant response rating: Radish, Wild: 100

## COc1nc(-c2ccccc2)nn1Cc1ccnc(C(F)(F)F)c1 [Compound 32]
Wheat (winter wheat); 31 g ai/ha
  Wheat plant response rating (0 to 100): 0
Wheat (winter wheat); 62 g ai/ha
  Wheat plant response rating (0 to 100): 0
Wheat (winter wheat)
  Plant response rating (scale of 0 to 100 where 0 is no effect and 100 is complete control): 0
foxtail, giant; 125 g ai/ha
  Plant response rating (scale of 0 to 100 where 0 is no effect and 100 is complete control): 85
foxtail, giant; 250 g ai/ha
  Plant response rating (scale of 0 to 100 where 0 is no effect and 100 is complete control): 100
foxtail, giant; 31 g ai/ha
  Foxtail, Giant plant response rating (0 to 100): 5
foxtail, giant; 62 g ai/ha
  Foxtail, Giant plant response rating (0 to 100): 70
soybean; 31 g ai/ha
  Soybean plant response rating (0 to 100): 0
soybean; 62 g ai/ha
  Soybean plant response rating (0 to 100): 0
soybean
  Plant response rating (scale of 0 to 100 where 0 is no effect and 100 is complete control): 5
barnyardgrass; 125 g ai/ha
  Plant response rating (scale of 0 to 100 where 0 is no effect and 100 is complete control): 10
barnyardgrass; 250 g ai/ha
  Plant response rating (scale of 0 to 100 where 0 is no effect and 100 is complete control): 75
barnyardgrass; 31 g ai/ha
  Barnyardgrass plant response rating (0 to 100): 0
barnyardgrass; 62 g ai/ha
  Barnyardgrass plant response rating (0 to 100): 5
